Where two headings read alike, the source gives them in different places.
Columns and labels:
DYRK1A [1] = molecular target: T1, DYRK1A (Homo sapiens (Human), UniProt Q13627); experiment: KINOMEscan Assay (DiscoverX), DYRK1A binding; settings: for Kd: eleven serial three fold dilutions (in duplicate); for remaining binding at 30 µM: read-out: Screening (30 μM) DiscoverX: primary screen binding interactions, % DMSO Ctrl
Experimental: (§1) DYRK1A Binding Assays. Compounds were tested for DYRK1A binding activity at two different commercial kinase profiling services, Life Technologies and DiscoverX. […] Compounds were screened for DYRK1A activity at a single concentration of 30 μM in duplicates.

DYRK1A [2] = molecular target: T1, DYRK1A; experiment: FRET-based LanthaScreen Eu Kinase Binding Assay (Life Technologies); settings: read-out: Screening (30 μM) LifeTech: % DYRK1A inhibition at 30 μM
Experimental: as §1

inhibition at 30 µM (DYRK1A [2]; 30 μM single concentration)	Compound	Kd (DYRK1A [1])	remaining binding at 30 µM (DYRK1A [1])	inhibition at 30 µM (DYRK1A [2])
	O=c1[nH]c2ccc(C3=NN=C(Nc4ccccc4)SC3)cc2[nH]1 [Compound 3-28, N-phenyl-5-(benzo[d]imidazol-2(3H)-one)-6H-1,3,4-thiadiazin-2-amine]	19000 nM	41%	39%
	O=c1[nH]c2ccc(C3=NN=C(NCc4ccc(Cl)cc4)SC3)cc2[nH]1 [Compound 3-12, N-(4-chlorobenzyl)-5-(benzo[d]imidazol-2(3H)-one)-6H-1,3,4-thiadiazin-2-amine]	185 nM	19%	93%
	N#Cc1cccc(NC2=NN=C(c3ccc4[nH]c(=O)[nH]c4c3)CS2)c1 [Compound 3-31, N-(3-cyanophenyl)-5-(benzo[d]imidazol-2(3H)-one)-6H-1,3,4-thiadiazin-2-amine]	3800 nM		
24%	CCCCNC1=NN=C(c2ccc3[nH]c(=O)[nH]c3c2)CS1 [Compound 3-5, N-butyl-5-(benzo[d]imidazol-2(3H)-one)-6H-1,3,4-thiadiazin-2-amine]		0%	
	O=c1[nH]c2ccc(C3=NN=C(NCc4ccc(C(F)(F)F)cc4)SC3)cc2[nH]1 [Compound 3-18, N-(4-trifluoromethylbenzyl)-5-(benzo[d]imidazol-2(3H)-one)-6H-1,3,4-thiadiazin-2-amine]		40%	53%
	O=c1[nH]c2ccc(C3=NN=C(NCCc4cccnc4)SC3)cc2[nH]1 [Compound 3-39, N-(2-(pyridine-3-yl)ethyl)-5-(benzo[d]imidazol-2(3H)-one)-6H-1,3,4-thiadiazin-2-amine]	2200 nM		
	NC(=O)c1cccc(CNC2=NN=C(c3ccc4[nH]c(=O)[nH]c4c3)CS2)c1 [Compound 4-2, N-(3-carboxyaminobenzyl)-5-(benzo[d]imidazol-2(3H)-one)-6H-1,3,4-thiadiazin-2-amine]	440 nM		
63%	CNC1=NN=C(c2ccc3[nH]c(=O)[nH]c3c2)CS1 [Compound 3-2, N-methyl-5-(benzo[d]imidazol-2(3H)-one)-6H-1,3,4-thiadiazin-2-amine]		0.5%	
	O=c1[nH]c2ccc(C3=NN=C(NCCc4ccccn4)SC3)cc2[nH]1 [Compound 3-38, N-(2-(pyridine-1-yl)ethyl)-5-(benzo[d]imidazol-2(3H)-one)-6H-1,3,4-thiadiazin-2-amine]	1600 nM	8.4%	87%
69%	CCNC1=NN=C(c2ccc3[nH]c(=O)[nH]c3c2)CS1 [Compound 3-3, N-ethyl-5-(benzo[d]imidazol-2(3H)-one)-6H-1,3,4-thiadiazin-2-amine]		0%	
	O=c1[nH]c2ccc(C3=NN=C(NCCc4ccccc4)SC3)cc2[nH]1 [Compound 3-34, N-(2-phenylethyl)-5-(benzo[d]imidazol-2(3H)-one)-6H-1,3,4-thiadiazin-2-amine]	1600 nM	0.5%	61%
46%	CC(C)(C)NC1=NN=C(c2ccc3[nH]c(=O)[nH]c3c2)CS1 [Compound 3-7, N-t-butyl-5-(benzo[d]imidazol-2(3H)-one)-6H-1,3,4-thiadiazin-2-amine]		0.75%	
	CC(NC1=NN=C(c2ccc3[nH]c(=O)[nH]c3c2)CS1)c1ccccc1 (centres unmarked) [Compound 3-25, N-(1-phenylethyl)-5-(benzo[d]imidazol-2(3H)-one)-6H-1,3,4-thiadiazin-2-amine]		3.7%	57%
	O=c1[nH]c2ccc(C3=NN=C(NCc4cccc5ccccc45)SC3)cc2[nH]1 [Compound 3-41, N-(1-naphthylmethyl)-5-(benzo[d]imidazol-2(3H)-one)-6H-1,3,4-thiadiazin-2-amine]	7300 nM	36%	11%
	O=c1[nH]c2ccc(C3=NN=C(NCc4ccncc4)SC3)cc2[nH]1 [Compound 3-24, N-(pyridine-4yl)methyl-5-(benzo[d]imidazol-2(3H)-one)-6H-1,3,4-thiadiazin-2-amine]	2200 nM		
	O=c1[nH]c2ccc(C3=NN=C(NCc4cccc(Cl)c4)SC3)cc2[nH]1 [Compound 3-13, N-(3-chlorobenzyl)-5-(benzo[d]imidazol-2(3H)-one)-6H-1,3,4-thiadiazin-2-amine]	420 nM		
48%	CCCNC1=NN=C(c2ccc3[nH]c(=O)[nH]c3c2)CS1 [Compound 3-4, N-propyl-5-(benzo[d]imidazol-2(3H)-one)-6H-1,3,4-thiadiazin-2-amine]		2.9%	
	N#Cc1cccc(CNC2=NN=C(c3ccc4[nH]c(=O)[nH]c4c3)CS2)c1 [Compound 3-22, N-(3-cyanobenzyl)-5-(benzo[d]imidazol-2(3H)-one)-6H-1,3,4-thiadiazin-2-amine]		12%	69%
	CC(NC1=NN=C(c2ccc3[nH]c(=O)[nH]c3c2)CS1)c1ccc(F)cc1 (centres unmarked) [Compound 3-26, N-(1-(4-fluorophenyl)ethyl)-5-(benzo[d]imidazol-2(3H)-one)-6H-1,3,4-thiadiazin-2-amine]	2300 nM		
	O=c1[nH]c2ccc(C3=NN=C(NCc4cccc(F)c4)SC3)cc2[nH]1 [Compound 3-16, N-(3-fluorobenzyl)-5-(benzo[d]imidazol-2(3H)-one)-6H-1,3,4-thiadiazin-2-amine]	900 nM		
	O=c1[nH]c2ccc(C3=NN=C(NCc4ccccc4Cl)SC3)cc2[nH]1 [Compound 3-14, N-(2-chlorobenzyl)-5-(benzo[d]imidazol-2(3H)-one)-6H-1,3,4-thiadiazin-2-amine]	840 nM		
	N-(3-phenylpropyl)-5-(benzo[d]imidazol-2(3H)-one)-6H-1,3,4-thiadiazin-2-amine [Compound 3-37]	950 nM		
	O=c1[nH]c2ccc(C3=NN=C(Nc4cccc(C(F)(F)F)c4)SC3)cc2[nH]1 [Compound 3-30, N-(3-trifluoromethylphenyl)-5-(benzo[d]imidazol-2(3H)-one)-6H-1,3,4-thiadiazin-2-amine]	14000 nM		
	O=c1[nH]c2ccc(C3=NN=C(NCc4cccc(C(F)(F)F)c4)SC3)cc2[nH]1 [Compound 3-19, N-(3-trifluoromethylbenzyl)-5-(benzo[d]imidazol-2(3H)-one)-6H-1,3,4-thiadiazin-2-amine]		23%	20%
59%	CC(C)NC1=NN=C(c2ccc3[nH]c(=O)[nH]c3c2)CS1 [Compound 3-6, N-isopropyl-5-(benzo[d]imidazol-2(3H)-one)-6H-1,3,4-thiadiazin-2-amine]		2.3%	
	O=c1[nH]c2ccc(C3=NN=C(NCc4cccnc4)SC3)cc2[nH]1 [Compound 3-23, N-(pyridine-3yl)methyl-5-(benzo[d]imidazol-2(3H)-one)-6H-1,3,4-thiadiazin-2-amine]	860 nM	4.2%	74%
	O=c1[nH]c2ccc(C3=NN=C(Nc4cccc(F)c4)SC3)cc2[nH]1 [Compound 3-29, N-(3-fluorophenyl)-5-(benzo[d]imidazol-2(3H)-one)-6H-1,3,4-thiadiazin-2-amine]	7000 nM		
	O=c1[nH]c2ccc(C3=NN=C(NCc4ccc(F)cc4)SC3)cc2[nH]1 [Compound 3-15, N-(4-fluorobenzyl)-5-(benzo[d]imidazol-2(3H)-one)-6H-1,3,4-thiadiazin-2-amine]		8.9%	95%
	N#Cc1ccc(CNC2=NN=C(c3ccc4[nH]c(=O)[nH]c4c3)CS2)cc1 [Compound 3-21, N-(4-cyanobenzyl)-5-(benzo[d]imidazol-2(3H)-one)-6H-1,3,4-thiadiazin-2-amine]		12%	47%
	O=c1[nH]c2ccc(C3=NN=C(NCc4ccccc4C(F)(F)F)SC3)cc2[nH]1 [Compound 3-20, N-(2-trifluoromethylbenzyl)-5-(benzo[d]imidazol-2(3H)-one)-6H-1,3,4-thiadiazin-2-amine]	7700 nM	38%	24%
